Several values for one entry are separate records, joined by “and”; a condition that tells them apart may be missing. Equal values may be shown once. Toxic doses and inconclusive results are not listed.
Tested on: P388 leukemia ip, CD2F1 mice, survival T/C
Experiment: NCI In Vivo Anticancer Drug Screen. Data for tumor model P388 Leukemia (intraperitoneal) in CD2F1 (CDF1) mice
Conditions: endpoint: median survival time, higher = longer survival
Summary of the method: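 Mice carrying the transplanted tumor received test compound or vehicle. Survival was recorded in each group, and the value is the treated-group measurement divided by that of the vehicle-treated control group.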

[1] = dose: 50.0 mg/kg/injection, schedule: Q01DX009 (ip), vehicle: saline
[2] = dose: 100.0 mg/kg/injection, schedule: Q01DX009 (ip), vehicle: saline
[3] = dose: 200.0 mg/kg/injection, schedule: Q01DX009 (ip), vehicle: saline

`CCCCNC(=O)[C@@H]1C[C@H](OP(c2ccccc2)c2ccccc2)CN1P(c1ccccc1)c1ccccc1` was tested, and the T/C (dose: 50.0 mg/kg/injection, schedule: Q01DX005 (ip), vehicle: saline with Tween-80) was 100 % of control, the T/C (dose: 100.0 mg/kg/injection, schedule: Q01DX005 (ip), vehicle: saline with Tween-80) was 100 % of control and the T/C (dose: 200.0 mg/kg/injection, schedule: Q01DX005 (ip), vehicle: saline with Tween-80) was 99 % of control.
For `NC(=O)c1cc(C(N)=O)n(C2OC(CO)C(O)C2O)n1` (configuration not stated), the T/C (dose: 30.0 mg/kg/injection, schedule: Q04DX002 (ip), vehicle: saline) was 98 % of control and 99 % of control, the T/C (dose: 60.0 mg/kg/injection, schedule: Q04DX002 (ip), vehicle: saline) was 104 % of control and 93 % of control and the T/C (dose: 120.0 mg/kg/injection, schedule: Q04DX002 (ip), vehicle: saline) was 98 % of control and 93 % of control.
For `Clc1ccc(-c2noc(CN3CCOCC3)n2)cc1`, the T/C [1] was 102 % of control, the T/C [2] was 105 % of control and the T/C [3] was 109 % of control.
For `CCOC(=O)c1cc(OCC)c(OCC)c(OCC)c1N`, the T/C (dose: 50.0 mg/kg/injection, schedule: Q01DX009 (ip), vehicle: saline with Tween-80) was 100 % of control, the T/C (dose: 100.0 mg/kg/injection, schedule: Q01DX009 (ip), vehicle: saline with Tween-80) was 100 % of control and the T/C (dose: 200.0 mg/kg/injection, schedule: Q01DX009 (ip), vehicle: saline with Tween-80) was 111 % of control.
In the case of `O=C1C=CC2(C=C1)CCN=C(c1cc3c(cc1Br)OCO3)O2`, the T/C (dose: 25.0 mg/kg/injection, schedule: Q04DX002 (ip), vehicle: saline) is reported as 102 % of control, the T/C (dose: 50.0 mg/kg/injection, schedule: Q04DX002 (ip), vehicle: saline) is reported as 103 % of control and the T/C (dose: 100.0 mg/kg/injection, schedule: Q04DX002 (ip), vehicle: saline with Tween-80) is reported as 108 % of control. The T/C (dose: 100.0 mg/kg/injection, schedule: Q04DX002 (ip), vehicle: saline) was 100 % of control.
In the case of `N#CC1C(=O)NC(=O)C(C#N)C1c1ccc(Cl)c(Cl)c1` (configuration not stated), the T/C (dose: 50.0 mg/kg/injection, schedule: Q01DX009 (ip), vehicle: Klucel (hydroxypropylcellulose) (HPC)) is reported as 99 % of control, the T/C (dose: 100.0 mg/kg/injection, schedule: Q01DX009 (ip), vehicle: Klucel (hydroxypropylcellulose) (HPC)) is reported as 100 % of control and the T/C (dose: 200.0 mg/kg/injection, schedule: Q01DX009 (ip), vehicle: Klucel (hydroxypropylcellulose) (HPC)) is reported as 102 % of control.
For `Cc1ccc2nc(N(C)C)nc-2c2[nH]c(=O)[nH]c12`, the T/C (dose: 8.25 mg/kg/injection, schedule: Q01DX005 (ip), vehicle: saline) was 110 % of control, the T/C (dose: 16.5 mg/kg/injection, schedule: Q01DX005 (ip), vehicle: saline) was 110 % of control and the T/C (dose: 33.0 mg/kg/injection, schedule: Q01DX005 (ip), vehicle: saline) was 107 % of control. The T/C (dose: 66.0 mg/kg/injection, schedule: Q01DX005 (ip), vehicle: saline) was 102 % of control.
In the case of `CC[n+]1ccc(Nc2ccc(NC(=O)c3ccc(Nc4cc[n+](CC)c5ccc([N+](=O)[O-])cc45)cc3)cc2)cc1`, the T/C (dose: 11.0 mg/kg/injection, schedule: Q01DX009 (ip), vehicle: Klucel (hydroxypropylcellulose) (HPC)) is reported as 162 % of control and 200 % of control, the T/C (dose: 16.0 mg/kg/injection, schedule: Q01DX009 (ip), vehicle: Klucel (hydroxypropylcellulose) (HPC)) is reported as 215 % of control and the T/C (dose: 16.5 mg/kg/injection, schedule: Q01DX009 (ip), vehicle: Klucel (hydroxypropylcellulose) (HPC)) is reported as 226 % of control. The T/C (dose: 22.0 mg/kg/injection, schedule: Q04DX003 (ip), vehicle: saline) was 175 % of control, the T/C (dose: 24.0 mg/kg/injection, schedule: Q01DX009 (ip), vehicle: Klucel (hydroxypropylcellulose) (HPC)) was 200 % of control and the T/C (dose: 25.0 mg/kg/injection, schedule: Q04DX003 (ip), vehicle: saline) was 154 % of control. For the same compound, the T/C (dose: 33.0 mg/kg/injection, schedule: Q04DX003 (ip), vehicle: saline) was 175 % of control and the T/C (dose: 50.0 mg/kg/injection, schedule: Q04DX003 (ip), vehicle: saline) was 180 % of control.
For `CC1(C)SC(C2NC(=O)C(c3ccccc3)NC2=O)NC1C(=O)O` (configuration not stated), the T/C (dose: 60.0 mg/kg/injection, schedule: Q01DX005 (ip), vehicle: Klucel (hydroxypropylcellulose) (HPC)) was 105 % of control, the T/C (dose: 120.0 mg/kg/injection, schedule: Q01DX005 (ip), vehicle: Klucel (hydroxypropylcellulose) (HPC)) was 99 % of control and the T/C (dose: 240.0 mg/kg/injection, schedule: Q01DX005 (ip), vehicle: Klucel (hydroxypropylcellulose) (HPC)) was 101 % of control.
In the case of `O=S(=O)(c1ccc(N=Cc2cccs2)cc1)c1ccc(N=Cc2cccs2)cc1`, the T/C [1] is reported as 99 % of control, the T/C [2] is reported as 98 % of control and the T/C [3] is reported as 91 % of control and 95 % of control.
